Source: US8796249B2, “TGR5 modulators and methods of use thereof” (Intercept Pharmaceuticals, Inc., priority 2008, dated 2014)

Tests used:
[1] = Critical micellar concentration by surface tension (maximum bubble-pressure method); type: physicochemical
Procedure: The critical micellar concentration (CMC) was determined by surface tension (ST) measurements using a maximum bubble-pressure method which give surface tension values slightly affected by potential impurities like static methods are. The tensiometer was a […] Research Corp., Milwaukee, Wis.) equipped with two glass probes of 0.5 and 4.0 mm diameters connected to a source of nitrogen. The bubble frequency was 1 bubble/second in distilled water at 26° C. (P=2.7 atm) and the calibration was made with double-distilled water and methanol. The surface tension of BA sodium salts solutions in NaCl 0.15 M was measured at various concentrations inside the 0.13-50 mM range. The surface tension values were plotted against the logarithm of the bile salt concentration; the regression lines corresponding to the two parts of the curve (monomeric and micellar phases) were calculated using the method of least squares, and the intersection of the lines was taken as the CMC value. From the ST vs concentration curves the value of the surface tension at the CMC (equilibrium between monomers and multimers species) was also calculated giving information about the detergency power which is related to the size of the micelles with associate surface tension lowering capacity. The CMC was evaluated by surface tension measurements in non equilibrium conditions i.e. in conditions that impurities slightly affect the surface tension results (FIG. 1).

C57BL6J mice = assay: Diet-induced obesity mouse model; type: in vivo
Procedure: The goal of the study was to assess the therapeutic potency of compound 3A in a mouse model of diet-induced obesity. Compound 3A was administered via food administration for 16 weeks to male C57BL6J mice that were previously subjected for 10 weeks to a high fat diet.
For this study, male C57BL6J mice (5 weeks of age) were divided in 2 groups: one group of animals received chow diet to control the onset of obesity, one group of animals received a high fat diet. Compound 3A was tested on the animals that received the high fat diet (HFD). The animals are then analyzed during a period of 13 weeks. The groups were as follows: • 1: chow diet • 2: high fat diet • 3: high fat diet+3A • During the entire study, body weight and food intake were monitored twice weekly. • The period for the onset of obesity was 10 weeks. At the end of the 10 weeks, body composition was analyzed by dual energy X-ray absorptiometry (dexascan) and serum levels of transaminases, glucose, triglycerides, cholesterol, HDL-C, LDL-C and insulin were measured. […]
The Dexa analyses were performed by the ultra high resolution PIXIMUS Series Densitometer (0.18×0.18 mm pixels, GE Medical Systems, Madison, Wis., USA). Bone mineral density (BMD in g/cm^2) and body composition were determined by using the PIXIMUS software (version 1.4×, GE Medical Systems). […]

SMILES: CC[C@H]1[C@@H](O)[C@@H]2[C@H](C[C@H](O)[C@]3(C)[C@@H]([C@H](C)CCCS(=O)(=O)[O-])CC[C@@H]23)[C@@]2(C)CC[C@@H](O)C[C@@H]12.[Na+] [Compound 3A, 3α,7α,12α-trihydroxy-6α-ethyl-5β-cholan-24-sulfonate Sodium Salt]
- surface tension lowering capacity ([1]; NaCl […]): high surface tension lowering capacity
- CMC […] Na+ ([1]; […] NaCl water solution): 2.8 mM
- STCMC (surface tension at CMC) ([1]; […] NaCl water solution): 43.4 Dyne/cm
- body weight gain (C57BL6J mice; HF-fed mice, compound in food, 0-9 weeks (FIG. 8)): blunted
- fat gain (body composition) (C57BL6J mice; HFD mice, 5 weeks after treatment (FIG. 9)): reduces fat gain
